Measured values as given in ChEMBL document CHEMBL4402571, “Methylation of Daptomycin Leading to the Discovery of Kynomycin, a Cyclic Lipodepsipeptide Active against Resistant Pathogens” (J Med Chem, 2020).
Converted amounts (≈) assume the structure as drawn. The source made the active and inactive calls. The rule behind the calls is not given here.

Key:
Staphylococcus aureus [1] = experiment: Bactericidal activity against Staphylococcus aureus ATCC 29213 assessed as reduction in bacterial load at 4 to 8 ug/ml preincubated for up to 24 hrs followed by subculturing on LB agar plate by time-kill assay; format: functional, organism-based
Enterococcus faecalis [2] = experiment: Bactericidal activity against Enterococcus faecalis ATCC 29212 assessed as reduction in bacterial load at 16 ug/ml preincubated for up to 24 hrs followed by subculturing on LB agar plate by time-kill assay; format: functional, organism-based
Staphylococcus aureus [3] = experiment: Antibacterial activity against methicillin-resistant Staphylococcus aureus ATCC 43300 infected in Galleria mellonella larvae assessed as increase in larvae survival at 50 mg/kg measured up to 72 hrs post-infection; format: functional, organism-based
Staphylococcus aureus [4] = experiment: Antibacterial activity against daptomycin-resistant Staphylococcus aureus SA11 infected in Galleria mellonella larvae assessed as increase in larvae survival at 50 mg/kg measured up to 72 hrs post-infection; format: functional, organism-based
Staphylococcus aureus [5] = experiment: Antibacterial activity against daptomycin-resistant Staphylococcus aureus SA11 infected in NIH mouse model of neutropenic thigh infection assessed reduction in bacterial level in thigh at 50 mg/kg, sc administered at 2 and 12 hrs post infection and measured at 48 to 60 hrs post-infection; format: functional, organism-based
Staphylococcus aureus [6] = experiment: Antibacterial activity against Staphylococcus aureus USA300 infected in Balb/c mouse model of sepsis assessed as bacterial eradication in kidney at 1.25 mg/kg, sc administered twice daily for 3 days starting from 1 hr post-infection followed by subculturing on LB agar plate and measured after overnight incubation; format: functional, organism-based
Enterococcus faecalis [7] = experiment: Antibacterial activity against Enterococcus faecalis ZS129 infected in Galleria mellonella larvae assessed as increase in larvae survival at 50 mg/kg measured up to 72 hrs post-infection; format: functional, organism-based
Enterococcus faecalis [8] = experiment: Antibacterial activity against Enterococcus faecalis T1027 infected in Galleria mellonella larvae assessed as increase in larvae survival at 50 mg/kg measured 96 hrs post-infection; format: functional, organism-based
Enterococcus faecalis [9] = experiment: Antibacterial activity against daptomycin-resistant Enterococcus faecalis T1027 infected in NIH mouse model of neutropenic thigh infection assessed reduction in bacterial level in thigh at 50 mg/kg, sc administered at 2 and 12 hrs post infection and measured at 48 to 60 hrs post-infection; format: functional, organism-based
Enterococcus faecalis [10] = experiment: Antibacterial activity against Enterococcus faecalis ATCC 29212 at sub-MIC after 7 serial passages by broth microdilution method; format: functional, organism-based
Staphylococcus aureus [11] = experiment: Induction of cell membrane integrity disruption in Staphylococcus aureus ATCC 29213 at 8 ug/ml measured after 0.5 to 2 hrs by SYTOX green staining based fluorescence assay; format: organism-based
Enterococcus faecalis [12] = experiment: Induction of cell membrane integrity disruption in Enterococcus faecalis ATCC 29212 at 16 ug/ml measured after 0.5 to 2 hrs by SYTOX green staining based fluorescence assay; format: organism-based
Enterococcus faecalis [13] = experiment: Induction of cell membrane integrity disruption in Enterococcus faecalis ATCC 29212 at 16 ug/ml measured after 1 hr by SYTOX green staining based confocal laser scanning microscopic analysis; format: organism-based
Enterococcus faecium [14] = experiment: Antibacterial activity against Enterococcus faecium ET60 by broth microdilution method; format: functional
Enterococcus faecium [15] = experiment: Antibacterial activity against Enterococcus faecium ET6 by broth microdilution method; format: functional
Staphylococcus aureus [16] = experiment: Antibacterial activity against methicillin-resistant Staphylococcus aureus SA14 by broth microdilution method; format: functional
Staphylococcus aureus [17] = experiment: Antibacterial activity against methicillin-resistant Staphylococcus aureus SA11 by broth microdilution method; format: functional
Staphylococcus aureus [18] = experiment: Antibacterial activity against methicillin-resistant Staphylococcus aureus SA86 by broth microdilution method; format: functional
Staphylococcus aureus [19] = experiment: Antibacterial activity against methicillin-resistant Staphylococcus aureus SA88 by broth microdilution method; format: functional
Staphylococcus aureus [20] = experiment: Antibacterial activity against Staphylococcus aureus ATCC 29213 by broth microdilution method; format: functional
Enterococcus faecalis [21] = experiment: Antibacterial activity against Enterococcus faecalis ATCC 29212 by broth microdilution method; format: functional
Staphylococcus aureus [22] = experiment: Bactericidal activity against Staphylococcus aureus ATCC 29213 assessed as reduction in bacterial load at 16 ug/ml preincubated for 24 hrs followed by subculturing on LB agar plate by time-kill assay; format: functional, organism-based
Enterococcus faecalis [23] = experiment: Bactericidal activity against Enterococcus faecalis ATCC 29212 assessed as reduction in bacterial load at 4 to 16 ug/ml preincubated for up to 24 hrs followed by subculturing on LB agar plate by time-kill assay; format: functional, organism-based
Staphylococcus aureus [24] = experiment: Antibacterial activity against Staphylococcus aureus ATCC 29213 at sub-MIC after 7 serial passages by broth microdilution method; format: functional, organism-based
Enterococcus faecalis [25] = experiment: Induction of cell membrane integrity disruption in Enterococcus faecalis ATCC 29212 at 8 to 32 ug/ml measured after 0.5 to 2 hrs by SYTOX green staining based fluorescence assay; format: organism-based
Enterococcus faecalis [26] = experiment: Antibacterial activity against Streptococcus faecalis by broth microdilution method; format: functional
Staphylococcus aureus [27] = experiment: Bactericidal activity against Staphylococcus aureus ATCC 29213 incubated prior to replating on agar plate measured after overnight incubation; format: functional
Enterococcus faecalis [28] = experiment: Bactericidal activity against Enterococcus faecalis ATCC 29212 incubated prior to replating on agar plate measured after overnight incubation; format: functional
Staphylococcus aureus [29] = experiment: Antibacterial activity against Staphylococcus aureus USA300 infected in Balb/c mouse model of sepsis assessed as mouse survival at 0.925 mg/kg, sc administered twice daily for 5 days starting from 1 hr post-infection relative to control; format: functional
Staphylococcus aureus [30] = experiment: Antibacterial activity against methicillin-resistant Staphylococcus aureus ATCC 33591 infected in iv dosed CD-1 ICR mouse administered as single dose measured after 7 days; format: functional; details: ATCC 33591, iv, 168 h
Staphylococcus aureus [31] = experiment: Antibacterial activity against methicillin-resistant Staphylococcus aureus 0114 infected in iv dosed CD-1 ICR mouse administered as single dose measured after 7 days; format: functional; details: Staphylococcus aureus, 0114, iv, 168 h
Enterococcus faecalis [32] = experiment: Antibacterial activity against Enterococcus faecalis ZS129 infected in Galleria mellonella larvae assessed as larvae survival at 50 mg/kg measured at 96 hrs post-infection relative to control; format: functional; details: ZS129, 96 h
Enterococcus faecalis [33] = experiment: Antibacterial activity against Enterococcus faecalis T1027 infected in Galleria mellonella larvae assessed as larvae survival at 50 mg/kg measured at 96 hrs post-infection relative to control; format: functional; details: T1027, 96 h
Staphylococcus aureus [34] = experiment: Antibacterial activity against Staphylococcus aureus ATCC 29213 assessed as mutation prevention concentration measured after 72 hrs; format: functional; details: ATCC 29213, 72 h
Enterococcus faecalis [35] = experiment: Antibacterial activity against Enterococcus faecalis ATCC 29212 assessed as mutation prevention concentration measured after 72 hrs; format: functional; details: ATCC 29212, 72 h

SMILES	Activity (Staphylococcus aureus [1])	Activity (Staphylococcus aureus [3])	Activity (Staphylococcus aureus [4])	Activity (Staphylococcus aureus [5])	Activity (Staphylococcus aureus [6])	Activity (Enterococcus faecalis [9])	Activity (Enterococcus faecalis [10])	Activity (Staphylococcus aureus [11])	Activity (Enterococcus faecalis [13])	MIC (Enterococcus faecium [14])	MIC (Enterococcus faecium [15])	MIC (Staphylococcus aureus [16])	MIC (Staphylococcus aureus [17])	MIC (Staphylococcus aureus [18])	MIC (Staphylococcus aureus [19])	MIC (Staphylococcus aureus [20])	MIC (Enterococcus faecalis [21])	other results
CCCCCCCCCC(=O)N[C@@H](Cc1c[nH]c2ccccc12)C(=O)N[C@@H](CC(N)=O)C(=O)N[C@@H](CC(=O)O)C(=O)N[C@@H]1C(=O)NCC(=O)N[C@@H](CCCN)C(=O)N[C@H](CC(=O)O)C(=O)N[C@H](C)C(=O)N[C@@H](CC(=O)O)C(=O)NCC(=O)N[C@H](CO)C(=O)N[C@@H]([C@@H](C)CC(=O)O)C(=O)N[C@@H](CC(=O)c2ccccc2N)C(=O)O[C@@H]1C	Active	Active	Active	Active	inactive	Active	inactive	Active	Active									Activity (Enterococcus faecalis [2]): Active; Activity (Enterococcus faecalis [7]): Active; Activity (Enterococcus faecalis [8]): Active; Activity (Enterococcus faecalis [12]): Active
CCCCCCCCCC(=O)N[C@@H](Cc1cn(C)c2ccccc12)C(=O)N[C@@H](CC(N)=O)C(=O)N[C@@H](CC(=O)O)C(=O)N[C@@H]1C(=O)NCC(=O)N[C@@H](CCCN)C(=O)N[C@@H](CC(=O)O)C(=O)N[C@H](C)C(=O)N[C@@H](CC(=O)O)C(=O)NCC(=O)N[C@H](CO)C(=O)N[C@@H]([C@H](C)CC(=O)O)C(=O)N[C@@H](CC(=O)c2ccccc2N)C(=O)O[C@@H]1C										1 µg/mL (≈ 0.612 µM)	1 µg/mL (≈ 0.612 µM)	0.5 µg/mL (≈ 0.306 µM)	2 µg/mL (≈ 1.22 µM)	0.5 µg/mL (≈ 0.306 µM)	0.25 µg/mL (≈ 0.153 µM)	0.5 µg/mL (≈ 0.306 µM)	2 µg/mL (≈ 1.22 µM)	
CCCCCCCCCC(=O)N[C@@H](Cc1c[nH]c2ccccc12)C(=O)N[C@@H](CC(N)=O)C(=O)N[C@@H](CC(=O)O)C(=O)N[C@@H]1C(=O)NCC(=O)N[C@@H](CCCN)C(=O)N[C@@H](CC(=O)O)C(=O)N[C@H](C)C(=O)N[C@@H](CC(=O)O)C(=O)NCC(=O)N[C@H](CO)C(=O)N[C@@H]([C@H](C)CC(=O)O)C(=O)N[C@@H](CC(=O)c2ccccc2NC)C(=O)O[C@@H]1C	Active	Active	Active	Active	Active	Active	inactive	Active	Active									Activity (Staphylococcus aureus [22]): Active; Activity (Enterococcus faecalis [23]): Active; Activity (Staphylococcus aureus [24]): Active; Activity (Enterococcus faecalis [25]): Active
CCCCCCCCCC(=O)N[C@@H](Cc1c[nH]c2ccccc12)C(=O)N[C@H](CC(N)=O)C(=O)N[C@@H](CC(=O)O)C(=O)N[C@@H]1C(=O)NCC(=O)N[C@@H](CCCN)C(=O)N[C@@H](CC(=O)O)C(=O)N[C@H](C)C(=O)N[C@@H](CC(=O)O)C(=O)NCC(=O)N[C@H](CO)C(=O)N[C@@H]([C@H](C)CC(=O)O)C(=O)N[C@@H](CC(=O)c2ccccc2NC)C(=O)O[C@@H]1C										1 µg/mL (≈ 0.612 µM)	1 µg/mL (≈ 0.612 µM)	0.25 µg/mL (≈ 0.153 µM)	0.5 µg/mL (≈ 0.306 µM)	0.25 µg/mL (≈ 0.153 µM)	0.25 µg/mL (≈ 0.153 µM)	0.25 µg/mL (≈ 0.153 µM)	1 µg/mL (≈ 0.612 µM)	MIC (Enterococcus faecalis [26]): 0.5 µg/mL (≈ 0.306 µM); MBC (Staphylococcus aureus [27]): 0.06 µg/mL (≈ 0.0367 µM); MBC (Enterococcus faecalis [28]): 4 µg/mL (≈ 2.45 µM); survival at 0.925 mg/kg (Staphylococcus aureus [29]): 100%; ED50 (Staphylococcus aureus [30]): 1.38 mg/kg; ED50 (Staphylococcus aureus [31]): 1.65 mg/kg; survival at 50 mg/kg (Enterococcus faecalis [32]): 40%; survival at 50 mg/kg (Enterococcus faecalis [33]): 60%; MPC (Staphylococcus aureus [34]): 8 µg/mL; MPC (Enterococcus faecalis [35]): 16 µg/mL
